Counter-ions that a name gives are not always drawn.
Legend:
[1] = molecular target: T1, human, citrated, platelet-rich plasma (Homo sapiens, UniProt P05106+P08514); experiment: test (a): inhibition of ADP stimulated platelet aggregation in human, citrated, platelet-rich plasma; format: cell-based; conditions: read-out: pA2 (converted)
T1 construct: aggregating human, citrated, platelet-rich plasma; endogenous in cells; host or cells: human platelets in citrated platelet-rich plasma
Source text: (i) aggregating human, citrated, platelet-rich plasma by addition of adenosine diphosphate (ADP) so as to generate a dose-response curve;
(ii) generating a dose-response curve for ADP stimulated platelet aggregation in the presence of increasing amounts of a test compound (generally in the range 10^-5 M to 10^-10 M); and
(iii) calculating a pA2 value indicating potency of platelet aggregation inhibition for the test compound, averaged over several concentrations, from the calculated 50% response value for ADP aggregation in the presence and absence of the test compound.

[2] = molecular target: T2, purified human platelet fibrinogen receptor (GPIIb/IIIa) (Homo sapiens, UniProt P05106+P08514); experiment: test (b): GPIIb/IIIa ELISA, inhibition of biotinylated fibrinogen binding; conditions: 50% inhibition of biotinylated fibrinogen binding to GPIIb/IIIa
T2 construct: Glycoprotein IIb/IIIa is isolated from human platelet lysates; from tissue
T2 sequence (P08514 32-887 limits assumed): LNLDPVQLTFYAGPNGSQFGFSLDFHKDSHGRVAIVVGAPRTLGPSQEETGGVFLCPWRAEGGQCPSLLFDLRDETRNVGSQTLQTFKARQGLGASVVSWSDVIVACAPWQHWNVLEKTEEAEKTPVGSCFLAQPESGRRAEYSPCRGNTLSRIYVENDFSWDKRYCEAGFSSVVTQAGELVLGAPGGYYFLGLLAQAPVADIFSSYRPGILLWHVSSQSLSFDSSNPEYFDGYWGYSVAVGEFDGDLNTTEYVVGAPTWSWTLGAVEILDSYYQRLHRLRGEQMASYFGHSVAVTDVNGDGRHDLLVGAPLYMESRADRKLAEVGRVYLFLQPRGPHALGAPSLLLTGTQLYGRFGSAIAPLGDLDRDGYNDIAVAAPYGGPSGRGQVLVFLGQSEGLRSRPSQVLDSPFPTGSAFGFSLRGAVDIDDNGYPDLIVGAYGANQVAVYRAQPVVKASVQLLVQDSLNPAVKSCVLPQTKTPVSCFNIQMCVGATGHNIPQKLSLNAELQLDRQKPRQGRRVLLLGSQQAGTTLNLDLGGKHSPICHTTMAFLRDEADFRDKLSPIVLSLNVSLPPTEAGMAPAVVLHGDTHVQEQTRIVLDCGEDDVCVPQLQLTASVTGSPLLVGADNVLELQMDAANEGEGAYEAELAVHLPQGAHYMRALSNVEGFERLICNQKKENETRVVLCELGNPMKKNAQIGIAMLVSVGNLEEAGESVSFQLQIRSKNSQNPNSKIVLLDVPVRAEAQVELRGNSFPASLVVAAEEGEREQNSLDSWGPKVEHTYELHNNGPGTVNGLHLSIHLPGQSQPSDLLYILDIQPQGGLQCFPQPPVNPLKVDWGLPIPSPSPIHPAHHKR
T2 sequence (P08514 891-1039 limits assumed): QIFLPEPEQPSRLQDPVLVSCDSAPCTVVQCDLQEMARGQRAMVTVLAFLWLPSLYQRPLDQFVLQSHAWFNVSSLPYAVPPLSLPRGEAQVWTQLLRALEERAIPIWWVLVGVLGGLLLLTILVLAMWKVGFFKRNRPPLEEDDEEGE
T2 sequence (P05106 27-788): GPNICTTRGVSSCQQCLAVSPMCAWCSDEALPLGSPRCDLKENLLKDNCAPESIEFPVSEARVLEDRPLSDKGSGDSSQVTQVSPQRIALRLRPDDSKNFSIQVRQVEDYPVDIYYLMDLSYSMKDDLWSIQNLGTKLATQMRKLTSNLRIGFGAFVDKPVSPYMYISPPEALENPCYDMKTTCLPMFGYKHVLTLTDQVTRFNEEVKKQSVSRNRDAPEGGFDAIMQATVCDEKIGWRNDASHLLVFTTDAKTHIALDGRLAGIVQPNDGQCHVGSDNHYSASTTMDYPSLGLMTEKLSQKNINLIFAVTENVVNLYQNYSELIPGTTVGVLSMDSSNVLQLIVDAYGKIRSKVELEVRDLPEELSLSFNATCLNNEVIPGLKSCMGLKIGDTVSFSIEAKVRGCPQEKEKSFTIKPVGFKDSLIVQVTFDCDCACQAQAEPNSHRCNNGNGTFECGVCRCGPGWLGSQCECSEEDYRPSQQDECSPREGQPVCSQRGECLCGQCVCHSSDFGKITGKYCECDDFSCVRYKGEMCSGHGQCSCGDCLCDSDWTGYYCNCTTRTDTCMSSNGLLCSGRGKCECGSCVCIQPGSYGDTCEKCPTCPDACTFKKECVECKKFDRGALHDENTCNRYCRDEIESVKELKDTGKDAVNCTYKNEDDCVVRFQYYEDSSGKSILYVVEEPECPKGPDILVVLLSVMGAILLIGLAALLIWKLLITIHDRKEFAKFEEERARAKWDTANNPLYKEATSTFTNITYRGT
Protocol: (i) Preparation of human platelet lysates
Platelet rich plasma (prp) is harvested by centrifugation (1000 rpm, 15 minutes) of whole blood anticoagulated with acid citrate dextrose (trisodium citrate 85 mM, citric acid 70 mM, d-glucose 110 mM) 1 part to 6 parts blood. Prostacyclin (PGI2, 1 μM) is added to the prp before centrifugation (2400 rpm, 15 min) and the resulting pellet is resuspended in modified Tyrodes' solution (NaCl 130 mM, […], NaHCO3, 12 mM, NaH2 PO4 0.5 mM, MgCl2 1 mM, CaCl2 20 mM, Glucose 12 mM, HEPES 5 mM) containing bovine serum albumin 3.5 g/L, PGI2 1 μM and hirudin 0.5 U/ml. The platelet suspension is centrifuged (2400 rpm, 15 minutes) and the resultant pellet resuspended in 500 μl of lysis buffer (octyl glucoside 50 mM, HEPES 10 mM, NaCl 150 mM, CaCl2 1 mM, MgCl2 1 mM, PMSF 1 mM, NEM 10 mM, leupeptin 0.1 mM), agitated at 4° C. for 15 minutes then centrifuged at 24000 rpm, 15 minutes. The supernatant is stored at 4° C. and the pellet re-suspended in 500 μl of lysis buffer. […]
96 well microtitre plates are coated with 100 μl purified human platelet fibrinogen receptor (GPIIb/IIIa) diluted in coating buffer (Tris-HCl 20 mM, NaCl 150 mM, CaCl2 1 mM, pH 7.4) and left overnight at 4° C. […] Colour is allowed to develop for 10-15 minutes before optical densities are read at 650 nm. […]

T1 sequence (P08514 32-887 limits assumed): as the sequence (P08514 32-887 limits assumed) above
T1 sequence (P08514 891-1039 limits assumed): as the sequence (P08514 891-1039 limits assumed) above
T1 sequence (P05106 27-788): as the sequence (P05106 27-788) above

SMILES: COC(=O)COc1ccc(C(=O)NC(=O)Nc2ccc(C(=N)N)cc2)cc1 [Example 1, Methyl 4-[4-(4-amidinophenyl)allophoyl]phenoxyacetate, acetate salt]
- Kb [1]: 31.6 nM
- IC50 [2]: 126 nM

SMILES: N=C(N)c1ccc(NC(=O)NC(=O)c2ccc(OCC(=O)O)cc2)cc1 [Example 2, 4-[4-(4-Amidinophenyl)allophanoyl]phenoxyacetic acid]
- Kb [1]: 25.1 nM
- IC50 [2]: 25.1 nM

From US5494922A, “Allophanic acid derivatives” (Zeneca Limited, priority 1993, dated 1996)
